{"source": "paper PMC11881016", "about": "“Deep‐Learning‐Based Approaches for Rational Design of Stapled Peptides With High Antimicrobial Activity and Stability” (Microbial Biotechnology, 2025)", "key": {"[1]": {"experiment": "Serum stability assay (residual antimicrobial activity against E. coli)", "assay_type": "in vitro ADME, bovine", "procedure": "The serum stability assay was conducted as described by Li et al. ([2020]) with minor modifications. In brief, each peptide was dissolved in PBS solution containing 25% foetal bovine serum (FBS) at a final concentration of 2048 μg/mL and diluted after incubation for 8 h. E. coli was used as the bacterium for the stability assay, and the bacterial inhibition experiment was performed according to the bacterial inhibitory activity assay. Residual activity was calculated using the following formula: Residual activity=MICbefore/MICafter\n• where MICbefore represents the MICs against E. coli before incubation, and MICafter represents the MICs against E. coli after incubation for 8 h."}, "[2]": {"system": "Escherichia coli (E. coli, ATCC25922)", "assay_type": "cell-based", "procedure": "(§1) Escherichia coli ( E. coli , ATCC25922), Klebsiella pneumoniae ( K. pneumoniae , ATCC10031), Staphylococcus aureus ( S. aureus , ATCC6538P), Pseudomonas aeruginosa ( P. aeruginosa , ATCC27853) and methicillin‐resistant Staphylococcus aureus (MRSA) were used to evaluate the antimicrobial activity of the peptides and were purchased from BeNa Culture Collection.\n(§2) The MICs of the peptides in vitro were determined using the broth microdilution method with minor modifications (Wiegand et al. [2008]). Peptides were incubated with bacteria (about 5 × 10^5 CFU/mL), and PBS was used as the negative control. After 18–24 h of incubation at 37°C, the bacteria were checked for growth by recording the values at OD600, with three replicates in each group."}, "[3]": {"system": "Klebsiella pneumoniae (K. pneumoniae, ATCC10031)", "assay_type": "cell-based", "settings": "for MIC K. pneumoniae: ATCC10031", "procedure": "as §1, §2"}, "[4]": {"system": "Pseudomonas aeruginosa (P. aeruginosa, ATCC27853)", "assay_type": "cell-based", "procedure": "as §1, §2"}, "[5]": {"system": "Staphylococcus aureus (S. aureus, ATCC6538P)", "assay_type": "cell-based", "settings": "for MIC S. aureus: ATCC6538", "procedure": "as §1, §2"}, "[6]": {"system": "any bacteria", "experiment": "Wet experiment result (antimicrobial activity of the synthesised peptides, positive/negative)", "assay_type": "cell-based", "settings": "experiment data set (Supplement S12)", "source_text": "Supplement MBT2-18-e70121-s002.doc, table 9 | column: Wet Exp. Result"}, "[7]": {"system": "methicillin‐resistant Staphylococcus aureus (MRSA)", "assay_type": "cell-based", "procedure": "as §1, §2"}, "[8]": {"settings": "stapled peptide compared to its linear peptide"}}, "note": "Where two headings read alike, the source gives them in different places. *1 amine or outer side, *2 acyl side, *3 side chain or, on linkers, in order; H or OH if unused. Where a SMILES comes first, the peptide text is derived from it. Bridges are numbered along the chain shown (N, C = ends). Where no end group is shown, it is not given here. [ ]: non-standard residue; d: D form. X1 = O=C([C@H](CCCCNCC=[*:3])N[*:1])[*:2]; Octanediyl(1,8) = C(CCCC[*:2])CCC[*:1]; X2 = C(CCCCC[*:2])CCCC[*:1]", "data": [{"compound": "GIGKFLHSAKKFGKAFVGEIMNS [Mag2, magainin II, reference compound]", "values": [{"measurement": "residual antimicrobial activity after incubation in 25% serum (in words)", "setting": "[1]; 25% foetal bovine serum, 8 h, MIC against E. coli, Figure 7L", "result": "significantly decreased"}]}, {"compound": "CC[C@H](C)[C@H](NC(=O)CN)C(=O)NCC(=O)N[C@@H](CCCCN)C(=O)N[C@@H](Cc1ccccc1)C(=O)N[C@@H](CC(C)C)C(=O)N[C@@H](Cc1c[nH]cn1)C(=O)N[C@@H](CO)C(=O)N[C@@H](C)C(=O)N[C@@H](CCCCN)C(=O)N[C@@H](CCCCN)C(=O)N[C@@H](Cc1ccccc1)C(=O)NCC(=O)N[C@@H](CCCCN)C(=O)N[C@@H](C)C(=O)N[C@@H](Cc1ccccc1)C(=O)N[C@H](C(=O)N[C@H]1CSSC[C@@H](C(=O)N[C@@H](CO)C(=O)O)NC(=O)[C@H](CC(C)C)NC(=O)[C@H]([C@@H](C)CC)NC(=O)[C@H](CCC(=O)O)NC1=O)C(C)C", "note": "[Mag2(i + 4)17Dc] (H-GIGKFLHSAKKFGKAFVCEILCS-OH; disulfide 18-22)", "values": [{"measurement": "MIC E. coli", "setting": "[2]", "result": 16, "unit": "µg/mL"}, {"measurement": "MIC K. pneumoniae", "setting": "[3]", "result": 16, "unit": "µg/mL"}, {"measurement": "MIC P. aeruginosa", "setting": "[4]", "result": 64, "unit": "µg/mL"}, {"measurement": "MIC S. aureus", "setting": "[5]", "result": 8, "unit": "µg/mL"}, {"measurement": "residual antimicrobial activity after incubation in 25% serum (in words)", "setting": "[1]", "result": "significantly decreased"}]}, {"compound": "CC[C@H](C)[C@H](NC(=O)[C@H](CCC(=O)O)NC(=O)CNC(=O)[C@@H](NC(=O)[C@H](Cc1ccccc1)NC(=O)[C@H](C)NC(=O)[C@H](CCCCN)NC(=O)CNC(=O)[C@H](Cc1ccccc1)NC(=O)[C@H](CCCCN)NC(=O)[C@H](CCCCN)NC(=O)[C@H](C)NC(=O)[C@H](CO)NC(=O)[C@H](Cc1c[nH]cn1)NC(=O)[C@H](CC(C)C)NC(=O)[C@@H]1CSCCCCCCCCSC[C@H](N)C(=O)N[C@@H]([C@@H](C)CC)C(=O)NCC(=O)N[C@@H](CCCCN)C(=O)N1)C(C)C)C(=O)N[C@@H](CC(C)C)C(=O)N[C@@H](CC(N)=O)C(=O)N[C@@H](CO)C(=O)O", "note": "[Mag(i + 4)0St] (H-CIGKCLHSAKKFGKAFVGEILNS-OH; linker 1-5 via Octanediyl(1,8); N-terminus and C-terminus assumed)", "values": [{"measurement": "MIC E. coli", "setting": "[2]", "result": 4, "unit": "µg/mL"}, {"measurement": "MIC K. pneumoniae", "setting": "[3]", "result": 16, "unit": "µg/mL"}, {"measurement": "MIC P. aeruginosa", "setting": "[4]", "result": 32, "unit": "µg/mL"}, {"measurement": "MIC S. aureus", "setting": "[5]", "result": 32, "unit": "µg/mL"}, {"measurement": "decrease of residual antimicrobial activity after incubation in 25% serum", "setting": "[1]", "result": "approximately 50%"}, {"measurement": "Wet Exp. Result", "setting": "[6]", "result": "Positive"}]}, {"compound": "CC[C@H](C)[C@H](NC(=O)CN)C(=O)NCC(=O)N[C@@H](CCCCN)C(=O)N[C@@H](Cc1ccccc1)C(=O)N[C@@H](CC(C)C)C(=O)N[C@@H](Cc1c[nH]cn1)C(=O)N[C@@H](CO)C(=O)N[C@@H](C)C(=O)N[C@@H](CCCCN)C(=O)N[C@@H](CCCCN)C(=O)N[C@H]1CSCCCCCCCCCCSC[C@@H](C(=O)N[C@H](C(=O)N[C@@H](CC(C)C)C(=O)N[C@@H](CC(N)=O)C(=O)N[C@@H](CO)C(=O)O)[C@@H](C)CC)NC(=O)CNC(=O)[C@H](C(C)C)NC(=O)[C@H](Cc2ccccc2)NC(=O)[C@H](C)NC(=O)[C@H](CCCCN)NC(=O)CNC1=O", "note": "[Mag(i + 7)11St] (H-GIGKFLHSAKKCGKAFVGCILNS-OH; linker 12-19 via X2)", "values": [{"measurement": "MIC E. coli", "setting": "[2]", "result": 16, "unit": "µg/mL"}, {"measurement": "MIC K. pneumoniae", "setting": "[3]", "result": 8, "unit": "µg/mL"}, {"measurement": "MIC P. aeruginosa", "setting": "[4]", "result": 32, "unit": "µg/mL"}, {"measurement": "MIC S. aureus", "setting": "[5]", "result": 2, "unit": "µg/mL"}, {"measurement": "residual antimicrobial activity after incubation in 25% serum (in words)", "setting": "[1]", "result": "remained unchanged"}, {"measurement": "Wet Exp. Result", "setting": "[6]", "result": "Positive"}]}, {"compound": "CC[C@H](C)[C@H](NC(=O)[C@@H](N)CCCNC(=N)N)C(=O)N[C@@H](CC(C)C)C(=O)N[C@@H](CCCNC(=N)N)C(=O)N[C@@H](CCCCN)C(=O)N[C@@H](CC(C)C)C(=O)N[C@@H](CCCCN)C(=O)N[C@H]1CCCCNC/C=C/CNCCCC[C@@H](C(=O)O)NC(=O)[C@H](CC(C)C)NC(=O)[C@H](Cc2ccccc2)NC(=O)[C@H](CCCNC(=N)N)NC1=O", "note": "[GAN‐P2‐3‐St] (H-RILRKLK[X1]RFL[X1]-OH; staple (E) 8-12)", "values": [{"measurement": "MIC E. coli", "setting": "[2]", "result": 16, "unit": "µg/mL"}, {"measurement": "MIC K. pneumoniae", "setting": "[3]", "result": 1, "unit": "µg/mL"}, {"measurement": "increase of antimicrobial activity against K. pneumoniae", "setting": "[3]; [8]", "result": "2–4 fold"}, {"measurement": "MIC P. aeruginosa", "setting": "[4]", "result": 32, "unit": "µg/mL"}, {"measurement": "MIC S. aureus", "setting": "[5]", "result": 2, "unit": "µg/mL"}, {"measurement": "increase of antimicrobial activity against S. aureus", "setting": "[5]; [8]", "result": 4, "unit": "fold"}, {"measurement": "MIC MRSA", "setting": "[7]; methicillin‐resistant", "result": 8, "unit": "µg/mL"}, {"measurement": "increase of antibacterial activity against MRSA", "setting": "[7]; [8]", "result": 16, "unit": "fold"}, {"measurement": "Wet Exp. Result", "setting": "[6]", "result": "Positive"}]}]}
